Experiments:
WG37R mice [1] = experiment: 14-day acute toxicity assessment in WG37R mice; assay type: in vivo; details: for H&E histology compared with control mice / signs of overt degeneration, inflammation and necrosis in examined tissues: single IP 10 mg/kg
Procedure: The WG37R mice were randomly assigned to 2 groups: For the first set of the experiment, a total of 6 animals per group (3 male and 3 female) were used in the study. Group 1: Sham treatment 1 (1:20 DMSO/PBS) and Group 2: NS-1-2 (10 mg/kg body weight). According to requirement of acute toxicity study, 6-10 animals should be used to evaluate the effect of a substance. However, as the new analogues are structurally similar to Edaravone, having a single-dose safety profile of 450 mg/kg, the mortality of the Edaravone analogues at a dose of 10 mg/kg body weight/day was not expected. Considering the above facts, for the present acute study, the minimum number of animals was 6 per group. Morphological alterations, histological changes, and mean body weight assessments for whole set of animals, for both the WG37R control groups (N=6; 1:20, DMSO:PBS) and WG37R treated groups (N=6; NS-1-2; 10 mg/kg bodyweight) were assessed during the 14-day acute toxicity assessment, by giving a single IP injection to the mouse at 2 months of age (see further detail in (iia) below.
For intraperitoneal administration, about 1:20 of DMSO/PBS, at a pH of about 7.4 was used for the suspension of NS-1-2 test substance. Edaravone was dissolved in about 1 mL of about 1 mol/L NaOH and adjusted to about pH 7.4 by adding about 1 mol/L HCl, and then diluted in saline. A volume of about 400 μl from final reconstituted solution was aliquoted and stored in about −80° C., until further use. For acute toxicity experiments, a single dose of about 10 mg/kg bodyweight of NS-1-2 was intraperitoneally injected to group 2, WG37R mice model at the age of 2 months. The WG37R mice in the group 1 received an injection of equal volume of (about 1:20; DMSO:PBS) instead. For chronic toxicity experiments, 120 daily doses of about 10 mg/kg bodyweight of NS-1-2 was intraperitoneally injected to group 4, WG37R mice model at the age of 3 months for 120 days, until the age of 7 months. The WG37R mice in the group 3 received an injection of equal volume of (about 1:20; DMSO:PBS) instead.
Wild type (WT) G37R mice received a single dose (about 0.2 mls) IP injection of Sham suspended in (about 1:20; DMSO:PBS) and a single dose of about 10 mg/kg bodyweight (about 0.2 mls) IP injection of NS-1-2 suspended in about 1:20; DMSO:PBS at the age of 2 months. […] At the experimental endpoint, the mice were first deeply anesthetized with a mixture of about 20% v/v isoflurane/propylene glycol (about 1 ml of the mixture per about 500 ml of bell jar space, University of Manitoba animal care SOP A003) and than exsanguination was done by cutting the animal's right atrium followed by an intracardiac perfusion with about 0.9% NaCl. During perfusion, syringe barrel nosecone was used for prolonged anesthesia. Cardiac perfusion was followed by perfusion with about 4% paraformaldehyde for histology (H&E staining) analysis. Mouse tissues (brain, heart, spinal cord, kidney, liver, muscle, lung, and spleen) were fixed for about 48 h in about 4% buffered formalin at about 4° C. Only the spinal cord was processed after about 24 h to remove the spine and again fixed for about another 24 h. Samples were processed and embedded into paraffin blocks at the Histomorphology and Ultrastructural Imaging platform, Dept. of Human Anatomy and Cell Science, University of Manitoba. Briefly, the embedded tissues were cut into about 5 μm thickness, mounted on super frost plus slides and dried overnight at about 37° C. Slides were deparaffinized in about 2 changes of xylene and rehydrated in descending alcohols (about 2 changes of about 100% Ethanol and about 2 changes of about 95% Ethanol) and tap water. Slides were stained with Harris Haematoxylin followed by differentiation with acid alcohol. After rinsing in tap water, saturated lithium carbonate was used for Bluing the nucleus. After that the slides were rinsed in tap water and counter stained with eosin. […]

WG37R mice [2] = experiment: 120-day chronic toxicity assessment in WG37R mice; assay type: in vivo; details: 10 mg/kg/day IP daily for 120 days
Procedure: The WG37R mice were randomly assigned to 2 groups: For the second set of the experiment, a total of 6 animals per group (3 male and 3 female) were used in the study. Group 3: Sham treatment 1 (1:20 DMSO/PBS) and Group 4: NS-1-2 (10 mg/kg body weight). According to requirement of acute toxicity study, 6-10 animals should be used to evaluate the effect of a substance. However, as the new analogues are structurally similar to Edaravone, having a single-dose safety profile of 450 mg/kg, the mortality of the Edaravone analogues at a dose of 10 mg/kg body weight/day was not expected. Considering the above facts, for the present acute study, the proposed minimum number of animals was 6 per group. Morphological alterations, histological changes, and mean body weight assessments for whole set of animals, for both the WG37R control groups (N=5; 1:20, DMSO:PBS) and WG37R treated groups (N=6; NS-1-2; 10 mg/kg bodyweight) were assessed during the 120-day chronic toxicity assessment, by giving daily of 120 IP injection to the mouse at 3 months of age. Only one male mice from group 3 (control) was terminated unexpectedly, and was likely due to an accidental error in injection (discussed with Central Animal Care Services, veterinarians and staff). IP injections may be difficult because of the aggressiveness of mice (particularly the male mice, during physical restraint). […]

[3] = test system: neuroblastoma-spinal cord hybrid NSC-34 cells; experiment: Neuroprotective effect/cell viability analysis in NSC-34 cells against H2O2 induced oxidative stress; assay type: cell-based; details: prophylactic treatment, 250 μM H2O2, FIG. 7A
[4] = single 10 mg/kg IP dose, 2 weeks monitoring

In the case of `Cc1cc(B2OC(C)(C)C(C)(C)O2)n(-c2ccccc2)n1` [NS-1-2, 3-methyl-5-(4,4,5,5-tetramethyl-1,3,2-dioxaborolan-2-yl)-1-phenyl1H-pyrazole], the “H&E histology compared with control mice” value (WG37R mice [1]; G37RWT female mice, FIG. 13) is reported as “no significant differences with respect to control mice”, the “signs of overt degeneration, inflammation and necrosis in examined tissues” value (WG37R mice [1]; G37RWT female mice, FIG. 13) is reported as “no signs of overt degeneration, inflammation and necrosis” and the “H&E histology compared with control mice” value (WG37R mice [1]; G37RWT male mice, FIG. 12) is reported as “no significant differences with respect to control mice”. For the same compound, the “signs of overt degeneration, inflammation and necrosis in examined tissues” value (WG37R mice [1]; G37RWT male mice, FIG. 12) was “no signs of overt degeneration, inflammation and necrosis”, the “changes in body weight” value (WG37R mice [1]; acute treatment, 10 mg/kg, FIG. 10) was “did not induce any abnormal changes in the body weight” and the daily general observations (WG37R mice [1]; [4]) was “normal appearance, normal general behaviour with well-conditioned body condition”. The treatment-related deaths (WG37R mice [1]; [4]) was “No acute treatment-related deaths”, the “clinical signs of toxicity compared to vehicle-treated mice” value (WG37R mice [2]) was “no clinical signs of toxicity” and the tolerability (WG37R mice [2]) was “seemingly tolerated”. The “protection from loss of cell viability induced by H2O2” value [3] was “protected NSC-34 cells from loss of cell viability”.
